These results are taken from patent US6096338A, “Delivery systems for hydrophobic drugs” (R. P. Scherer Corporation, priority 1994, dated 2000).

Data set [1] in a line: Aqueous solubility of progesterone in buffer, bile and lipolytic products. It counts as physicochemical. As to conditions: for solubility at 1 h / solubility at 2 h: pH 6.5, 37° C.; for solubility at 1 h: read-out: Progesterone solubility after 60 minutes; for solubility at 2 h: read-out: Progesterone solubility after 120 minutes. As to the method: The solubility of progesterone was determined as follows:
The following five aqueous media were each prepared at 37° C. in the pH-Stat reaction vessel. The pH of each solution was adjusted to exactly 6.50 by the addition of an appropriate volume of 1.0 molar sodium hydroxide solution. […]
pH 6.50 tris-maleate buffer solution (containing 5 mM calcium chloride and 150 mM sodium chloride) pH 6.50 tris-maleate buffer solution+15 mM ox bile pH 6.50 tris-maleate buffer solution+15 mM ox bile+0.5% hydrophilic surfactant (Cremophor RH40) pH 6.50 tris-maleate buffer solution+15 mM ox bile+medium chain lipolytic products viz 53% by weight of caprylic acid-monocaprylate (2:1 molar ratio) and 47% by weight of capric acid-monocaprate (2:1 molar ratio) […]
pH 6.50 tris maleate buffer solution+15 mM ox bile+0.5% long chain lipolytic products viz oleic acid and monoolein (2:1 molar ratio) The following procedures was performed in triplicate. 15 mls of each of the above aqueous media were added to approximately 20 mgs (excess) of progesterone in 21 ml glass vials. Each vial was whirlmixed and then maintained at 37° C. in an ultrasonic bath for 120 minutes. After 60 and 120 minutes, 3 ml of each solution were extracted for progesterone solubility determination by HPLC, using the following standard procedure:
Each sample is filtered through a 13 mm 0.2 μm PVDF syringe filter (supplied by Whatman®). The first 1.5 ml of filtrate is discarded. 0.8 ml of the remaining filtrate is combined with 0.8 ml of acetonitrile (the mobile phase) in an amber glass vial. The vial is then hermetically sealed and shaken by hand and then analysed.

In a further data set the test system is Pancreatic lipase. The data set is described as follows: In vitro lipolysis test (pH-stat titration) of fractionated coconut oil (FCO) with hydrophilic and lipophilic surfactants. The following applies: FCO with Cremophor RH40 and lipophilic surfactant; FIG. 2. The data set is classed as biochemical.
Data set [2] in a line: Aqueous solubility of hydrophobic drugs in simulated intestinal fluid with bile and lipolytic products. It counts as physicochemical. The following applies: pH 6.5. Here is the method: As stated above, the aqueous solubilities of hydrophobic drugs can be increased by incorporation into mixed micelles, formed by bile salts and lipolytic products of triglyceride oil digestion.
An aqueous medium was prepared to simulate the intestinal environment using the following components:
100 mls pH 6.5 Tris-maleate buffer solution containing:
The medium was prepared as described in the in vitro test procedure described above. To this simulated intestinal fluid a series of different components were added to evaluate the enhancement of the aqueous solubility of a range of hydrophobic drugs. The components which were added were:
Experiment (i) Nothing (control experiment)
15 mM crude ox gallbladder bile
15 mM crude ox gallbladder bile +
500 mg of medium chain lipolytic
products (137 mg capric acid, 98 mg
glyceryl monocaprate, 151 mg
caprylic acid and 114 mg glyceryl
500 mg of long chain lipolytic
products (307 mg oleic acid and
193 mg glyceryl monooleate). […]
Then 100 mg of drug, in powder form, was added to the reaction medium, the pH was adjusted to 6.5 and the medium was mixed for 21/2 hours. At this time a sample was taken from the vessel, filtered through a 0.2 micron filter and the quantity of drug in solution in the simulated intestinal fluid was determined by a specific HPLC method.

Where [3] appears, read: Buffer + 15 mM ox bile + 0.5% MCLPs.

What is called solubility is the concentration that dissolves in the medium under given conditions.

In brackets after ≈: the same amount, converted by molar mass. Where two headings read alike, the source gives them in different places.

Text for Pancreatic lipase: In Vitro Test for Determining the Suitability of Hydrophilic and Lipophilic Surfactants
Pancreatic lipase in the presence of colipase catalyses the lipolysis (also termed hydrolysis or de-esterification) of emulsified oils, a process that results in the production of fatty acids. The rate of fatty acid generation, and thus a measure of the rate of lipolysis, can be followed via continuous titration with a pH-stat as described below.
The pH-stat should comprise, for example, a pH-meter, an autoburette and an autotitration unit. These instruments can be obtained from Radiometer A/S, Copenhagen, Denmark as product numbers PHM82, ABU80 and TTT80, respectively.
The reaction should be performed in a glass thermostatted vessel maintained at 37.5±0.5° C. This vessel should have an internal diameter of approximately 7.5 cm and a height of approximately 7.0 cm. During an experiment the reaction vessel should be placed beneath the titration assembly unit so that the tips of the pH-electrodes and the stirrer are all at least 1 cm beneath the liquid level. […]
At time=30 minutes, titrate the pH up to precisely 6.50 (e.g. using 1.0M NaOH using the autotitrator). Record the volume of titrant dispensed, then re-zero the titrant display reading on the autotitrator. […]

With `CC(=O)[C@H]1CC[C@H]2[C@@H]3CCC4=CC(=O)CC[C@]4(C)[C@H]3CC[C@]12C` [Progesterone, progesterone], in data set [1] (0.5% long chain lipolytic products, vs bile salts), the “Further increase in solubility with long chain lipolytic products” value is recorded as “approximately 3 fold”. The “Further increase in solubility with medium chain lipolytic products” value in data set [1] (0.5% medium chain lipolytic products, vs bile salts) is “approximately 3 fold”. The solubility at 1 h turned out to be 46.6 ± 0.47 µg/mL in data set [1] (Buffer + 15 mM bile); 153 ± 6.17 µg/mL in data set [1] (Buffer + 15 mM ox bile + 0.5% LCLPs); 136 ± 11 µg/mL in data set [1] (setting [3]); 10.1 ± 0.25 µg/mL (≈ 32.1 µM) in data set [1] (aqueous buffer, Buffer alone). Also, the solubility at 2 h in data set [1] (Buffer + 15 mM bile) is 45.5 ± 1.08 µg/mL; in data set [1] (setting [3]), 142 ± 6.31 µg/mL; in data set [1] (aqueous buffer, Buffer alone), 9.47 ± 1.16 µg/mL (≈ 30.1 µM). Besides, in data set [1] (bile salts vs buffer alone), the “Increase in solubility in bile salts compared to buffer alone” value was “approximately 4.5 fold”.
Regarding `CCCCCCCC/C=C\CCCCCCCC(=O)O` [oleic acid], in the data set with Pancreatic lipase, the “Ability to overcome inhibitory effects of Cremophor RH40 on rate of FCO lipolysis” value was “capable of overcoming the inhibitory effects”.
With `CC(C)(Sc1cc(C(C)(C)C)c(O)c(C(C)(C)C)c1)Sc1cc(C(C)(C)C)c(O)c(C(C)(C)C)c1` [Probucol, probucol], in data set [2], the Buffer solubility entry is given as “below the detection limit of assay”.
